Experimental data taken from ChEMBL document CHEMBL5584334, “Discovery of a Covalent Inhibitor of Pro-Caspase-1 Zymogen Blocking NLRP3 Inflammasome Activation and Pyroptosis” (J Med Chem, 2024).
Calls of active or inactive are those of the source. The rule behind the calls is not given here. Residues, ends and D or L forms follow the SMILES beside them. *: point of attachment. Cbz = O=C(OCc1ccccc1)*; CH2F = FC*

Tests used:
Caspase-1 = target: T1, Caspase-1 (Homo sapiens, UniProt P29466); assay: Inhibition of recombinant human caspase-1 expressed in Escherichia coli BL21 cells using […] as substrate incubated for 30 mins
T1 sequence (P29466 whole entry): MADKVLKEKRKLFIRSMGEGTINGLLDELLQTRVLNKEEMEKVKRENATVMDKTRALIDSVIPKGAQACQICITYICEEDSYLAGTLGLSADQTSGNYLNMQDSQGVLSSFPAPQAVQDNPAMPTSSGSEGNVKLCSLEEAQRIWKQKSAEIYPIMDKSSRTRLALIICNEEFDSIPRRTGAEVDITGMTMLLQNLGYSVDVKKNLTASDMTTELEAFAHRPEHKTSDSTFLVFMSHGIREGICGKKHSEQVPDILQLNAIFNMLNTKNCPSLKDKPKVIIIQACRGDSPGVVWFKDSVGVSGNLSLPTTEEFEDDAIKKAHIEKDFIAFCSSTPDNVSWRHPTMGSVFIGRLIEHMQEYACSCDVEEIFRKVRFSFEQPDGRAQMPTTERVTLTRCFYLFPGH

Caspase-1 (Homo sapiens) [1] = target: T2, Caspase-1 (Homo sapiens) (UniProt P29466); assay: Inhibition of recombinant human caspase-1 expressed in Escherichia coli BL21 cells assessed as remaining activity at 10 uM using […] as substrate incubated for 30 mins relative to control
T2 sequence (whole entry): T1 sequence (P29466 whole entry)

Caspase-1 (Homo sapiens) [2] = target: T2, Caspase-1 (Homo sapiens); assay: Inhibition of recombinant human caspase-1 expressed in Escherichia coli BL21 cells assessed as remaining activity at 100 uM using […] as substrate incubated for 30 mins relative to control
[3] = target: NACHT, LRR and PYD domains-containing protein 3 (Mus musculus) (UniProt Q8R4B8); assay: Inhibition of NLRP3 inflammasome activation activation in LPS/nigericin stimulated mouse J774.A1 cells assessed as reduction in IL-1beta production pretreated with LPS for 3 hrs prior to compound addition for 30 mins followed by nigericin addition and measured after 45 mins by ELISA; assay type: cell-based; conditions: dose 0.001-2000 nM, time 75.0 min
Caspase-1 (Homo sapiens) [4] = target: T2, Caspase-1 (Homo sapiens); assay: Inhibition of recombinant human caspase-1 expressed in Escherichia coli BL21 cells at 5 to 50 uM using […] as substrate incubated for 30 mins; conditions: dose 5-50 µM
Caspase-1 (Homo sapiens) [5] = target: T2, Caspase-1 (Homo sapiens); assay: Inhibition of caspase-1 activity (unknown origin); conditions: dose 50-300 µM
Caspase-3 (Mus musculus) = target: T3, Caspase-3 (Mus musculus) (UniProt P70677); assay: Inhibition of cisplatin induced caspase-3 activation in mouse J774.A1 cells at 1 uM preincubated for 30 mins followed by cisplatin addition and incubated overnight; assay type: cell-based
T3 sequence (whole entry): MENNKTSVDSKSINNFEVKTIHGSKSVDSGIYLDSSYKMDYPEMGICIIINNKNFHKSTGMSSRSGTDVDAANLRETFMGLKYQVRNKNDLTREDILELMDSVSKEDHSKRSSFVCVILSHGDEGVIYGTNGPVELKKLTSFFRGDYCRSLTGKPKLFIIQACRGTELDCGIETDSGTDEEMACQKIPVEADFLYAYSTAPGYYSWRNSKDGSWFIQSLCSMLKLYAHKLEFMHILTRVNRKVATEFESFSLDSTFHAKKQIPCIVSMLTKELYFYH

Caspase-7 (Mus musculus) = target: T4, Caspase-7 (Mus musculus) (UniProt P97864); assay: Inhibition of cisplatin induced caspase-7 activation in mouse J774.A1 cells at 1 uM preincubated for 30 mins followed by cisplatin addition and incubated overnight; assay type: cell-based
T4 sequence (whole entry): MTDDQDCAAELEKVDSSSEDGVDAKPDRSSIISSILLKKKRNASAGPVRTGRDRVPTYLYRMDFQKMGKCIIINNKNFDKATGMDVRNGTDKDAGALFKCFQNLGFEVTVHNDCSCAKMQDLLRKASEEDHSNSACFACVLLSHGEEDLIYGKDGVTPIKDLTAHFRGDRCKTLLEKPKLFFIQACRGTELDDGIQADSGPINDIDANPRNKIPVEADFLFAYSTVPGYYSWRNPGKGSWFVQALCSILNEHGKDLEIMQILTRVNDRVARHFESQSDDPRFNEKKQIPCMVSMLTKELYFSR

J774.A1 [6] = assay: Binding affinity to pro-caspase 1 in mouse J774.A1 cell lysates at 1 to 2 uM incubated for 2 hrs by pull-down assay; assay type: subcellular; conditions: dose 1-2 µM
J774.A1 [7] = assay: Inhibition of IL-1beta release in mouse J774.A1 cells at 20 uM pretreated with LPS for 3 hrs followed by compound addition for 30 mins and nigericin stimulation for 45 mins; assay type: functional, cell-based; conditions: time 75.0 min
J774.A1 [8] = assay: Binding affinity to pro-caspase 1 in mouse J774.A1 cells by Western blotting analysis; assay type: cell-based
J774.A1 [9] = assay: Binding affinity to pro-caspase 1 in mouse J774.A1 cell lysates at 1 to 2 uM incubated for 2 hrs in presence of 1'-benzyl 6-(tert-butyl) (1R,4R,6R)-4-isothiocyanato-5'-methoxy-2'-oxospiro[cyclohexane-1,3'-indolin]-2-ene-1',6-dicarboxylate by pull-down assay; assay type: subcellular; conditions: dose 1-2 µM
[10] = target: NFU1 iron-sulfur cluster scaffold homolog, mitochondrial (Mus musculus) (UniProt Q9QZ23); assay: Binding affinity to Nfu1 in mouse J774.A1 cells lysate by mass-spectrophotometric assay; assay type: subcellular
[11] = target: Thioredoxin (Mus musculus) (UniProt P10639); assay: Binding affinity to Txn in mouse J774.A1 cells lysate by mass-spectrophotometric assay; assay type: subcellular
J774.A1 [12] = assay: Binding affinity to pro-caspase 1 in mouse J774.A1 cells at 50 uM pretreated with LPS for 3 hrs and nigericin stimulation for 45 mins followed by compound addition by pull-down assay; assay type: cell-based

NACHT, LRR and PYD domains-containing protein 3 (Mus musculus), sequence (Q8R4B8 whole entry, the tested form may be a part): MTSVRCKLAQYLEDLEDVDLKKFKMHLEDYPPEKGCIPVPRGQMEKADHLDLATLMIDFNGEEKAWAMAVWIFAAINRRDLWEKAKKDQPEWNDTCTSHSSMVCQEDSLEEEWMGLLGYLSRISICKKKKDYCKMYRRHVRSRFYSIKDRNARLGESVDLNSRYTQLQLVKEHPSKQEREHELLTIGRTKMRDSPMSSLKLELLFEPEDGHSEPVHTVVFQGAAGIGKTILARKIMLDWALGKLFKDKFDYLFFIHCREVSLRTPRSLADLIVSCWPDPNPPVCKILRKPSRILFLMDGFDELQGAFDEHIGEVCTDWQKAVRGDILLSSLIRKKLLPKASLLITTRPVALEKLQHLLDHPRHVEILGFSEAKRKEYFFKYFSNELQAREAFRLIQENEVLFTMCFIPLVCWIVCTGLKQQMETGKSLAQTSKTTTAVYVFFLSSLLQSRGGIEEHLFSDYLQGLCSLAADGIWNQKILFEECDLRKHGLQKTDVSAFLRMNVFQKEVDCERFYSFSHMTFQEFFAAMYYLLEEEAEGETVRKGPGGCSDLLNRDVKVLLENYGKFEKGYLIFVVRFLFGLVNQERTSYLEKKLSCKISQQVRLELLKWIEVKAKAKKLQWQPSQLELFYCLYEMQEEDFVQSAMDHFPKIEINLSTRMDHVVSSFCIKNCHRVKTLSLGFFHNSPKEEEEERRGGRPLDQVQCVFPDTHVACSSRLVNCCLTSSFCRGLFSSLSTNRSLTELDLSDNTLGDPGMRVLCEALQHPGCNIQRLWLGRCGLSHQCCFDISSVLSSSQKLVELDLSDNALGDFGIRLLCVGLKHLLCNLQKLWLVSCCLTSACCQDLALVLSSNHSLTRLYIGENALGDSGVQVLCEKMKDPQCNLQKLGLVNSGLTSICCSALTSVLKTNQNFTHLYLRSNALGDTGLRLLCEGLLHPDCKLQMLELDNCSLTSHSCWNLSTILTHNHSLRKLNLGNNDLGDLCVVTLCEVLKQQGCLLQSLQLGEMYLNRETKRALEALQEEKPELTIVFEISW
NFU1 iron-sulfur cluster scaffold homolog, mitochondrial (Mus musculus), sequence (Q9QZ23 whole entry): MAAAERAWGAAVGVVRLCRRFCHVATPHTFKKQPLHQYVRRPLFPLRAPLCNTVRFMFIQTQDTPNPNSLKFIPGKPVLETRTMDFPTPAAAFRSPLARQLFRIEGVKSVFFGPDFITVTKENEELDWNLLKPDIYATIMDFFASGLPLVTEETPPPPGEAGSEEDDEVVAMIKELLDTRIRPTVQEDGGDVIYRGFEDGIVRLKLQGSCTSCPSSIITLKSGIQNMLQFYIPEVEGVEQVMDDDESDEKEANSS
Thioredoxin (Mus musculus), sequence (P10639 whole entry): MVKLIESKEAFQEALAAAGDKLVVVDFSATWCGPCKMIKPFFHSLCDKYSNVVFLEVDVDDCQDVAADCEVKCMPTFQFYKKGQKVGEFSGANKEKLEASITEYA

| SMILES | IC50 (Caspase-1) [µM] | Activity (Caspase-1 (Homo sapiens) [1]) [%] | Activity (Caspase-1 (Homo sapiens) [2]) [%] | also measured |
| --- | --- | --- | --- | --- |
| CC(C)(C)OC(=O)[C@@H]1C[C@@H](N=C=S)C=C[C@@]12C(=O)N(C(=O)OCc1ccccc1)c1cc(F)c(F)cc12 | 43.6 | 73 | 21 | – |
| S=C=NCCc1ccccc1 | – | – | – | inhibition [3]: Dose-Dependent Effect; inhibition (active/not active) (Caspase-1 (Homo sapiens) [4]): inactive |
| COC(=O)[C@@H]1C[C@@H](N=C=S)C=C[C@@]12C(=O)N(C(=O)OCc1ccccc1)c1ccccc12 | 29.4 | 78 | 9 | – |
| CC(C)(C)OC(=O)[C@@H]1C[C@@H](NC(=S)Nc2ccccc2)C=C[C@@]12C(=O)N(C(=O)OCc1ccccc1)c1ccccc12 | > 100 | 112 | 84 | – |
| COc1ccc2c(c1)[C@]1(C=C[C@@H](N=C=S)C[C@H]1C(=O)OC(C)(C)C)C(=O)N2C(=O)OCc1ccccc1 | – | – | – | inhibition (active/not active) (Caspase-1 (Homo sapiens) [4]): Active |
| CC(C)(C)OC(=O)[C@@H]1C[C@@H](N=C=S)C=C[C@@]12C(=O)N(C(=O)OCc1ccccc1)c1ccc(I)cc12 | > 100 | 88 | 61 | – |
| CC(C)(C)OC(=O)[C@@H]1C[C@@H](N=C=S)C=C[C@@]12C(=O)N(C(=O)OCc1ccccc1)c1ccc(Cl)cc12 | 84.8 | 77 | 24 | – |
| CC(C)(C)OC(=O)[C@@H]1C[C@@H](N=C=S)C=C[C@@]12C(=O)N(C(=O)OCc1ccccc1)c1ccc(Br)cc12 | 89.8 | 92 | 31 | – |
| COC(=O)N1C(=O)[C@@]2(C=C[C@H](N=C=S)C[C@H]2C(=O)OC(C)(C)C)c2ccccc21 | 58.2 | 68 | 34 | – |
| CC1=C[C@@]2(C(=O)N(C(=O)OCc3ccccc3)c3ccccc32)[C@H](C(=O)OC(C)(C)C)C[C@@]1(C)N=C=S | > 100 | 103 | 91 | – |
| CC(C)(C)OC(=O)[C@@H]1C[C@@H](N=C=S)C=C[C@@]12C(=O)N(C(=O)OCc1ccccc1)c1cc(Br)ccc12 | 15.4 | 71 | 20 | – |
| CC(C)(C)OC(=O)[C@@H]1C[C@@H](N=C=S)C=C[C@@]12C(=O)N(C(=O)OCc1ccccc1)c1ccc(F)cc12 | 80.7 | 81 | 17 | – |
| C[S+]([O-])CCCCN=C=S (stereo unspecified) | – | – | – | inhibition [3]: Dose-Dependent Effect; inhibition (active/not active) (Caspase-1 (Homo sapiens) [4]): inactive |
| CC1=C[C@@]2(C(=O)N(C(=O)OCc3ccccc3)c3ccccc32)[C@H](C(=O)OC(C)(C)C)C[C@H]1N=C=S | > 100 | 93 | 84 | – |
| COc1ccc2c(c1)[C@@]1(C=C[C@@H](N=C=S)C[C@@H]1C(=O)OC(C)(C)C)C(=O)N2C(=O)OCc1ccccc1 | – | – | – | inhibition (active/not active) (Caspase-1 (Homo sapiens) [4]): Active |
| CCC1=C[C@@]2(C(=O)N(C(=O)OCc3ccccc3)c3ccccc32)[C@H](C(=O)OC(C)(C)C)C[C@@]1(CC)N=C=S | > 100 | 108 | 90 | – |

| SMILES | IC50 (Caspase-1) [µM] | Activity (Caspase-1 (Homo sapiens) [1]) [%] | Activity (Caspase-1 (Homo sapiens) [2]) [%] | also measured |
| --- | --- | --- | --- | --- |
| CC(C)OC(=O)[C@@H]1C[C@@H](N=C=S)C=C[C@@]12C(=O)N(C(=O)OCc1ccccc1)c1ccccc12 | 72.9 | 104 | 19 | – |
| CC(C)(C)OC(=O)[C@@H]1CC=C[C@@H](SC#N)[C@@]12C(=O)Nc1ccc(NC(=O)CCCC[C@@H]3SC[C@@H]4NC(=O)N[C@@H]43)cc12 | – | – | – | inhibition (Caspase-1 (Homo sapiens) [5]): inactive |
| Cc1ccc2c(c1)[C@]1(C=C[C@H](N=C=S)C[C@H]1C(=O)OC(C)(C)C)C(=O)N2C(=O)OCc1ccccc1 | 28.4 | 68 | 15 | – |
| O=C(Oc1ccccc1)[C@@H]1C[C@@H](N=C=S)C=C[C@@]12C(=O)N(C(=O)OCc1ccccc1)c1ccccc12 | > 100 | 101 | 56 | – |
| COc1ccc2c(c1)[C@@]1(C(=O)N2C(=O)OCc2ccccc2)[C@@H](SC#N)C=CC[C@H]1C(=O)OC(C)(C)C | – | – | – | inhibition (active/not active) (Caspase-1 (Homo sapiens) [4]): inactive |
| O=C(c1ccccc1)[C@@H]1C[C@@H](N=C=S)C=C[C@@]12C(=O)N(C(=O)OCc1ccccc1)c1ccccc12 | 26.2 | 56 | 15 | – |
| CC(C)(C)OC(=O)[C@@H]1C[C@@H](N=C=S)C=C[C@@]12C(=O)N(C(=O)OCc1ccccc1)c1ccccc12 | 37.6 | 76 | 15 | – |
| CC(C)(C)OC(=O)[C@@H]1C[C@@H](N=C=S)C=C[C@@]12C(=O)N(C(=O)OCC1c3ccccc3-c3ccccc31)c1ccccc12 | 75.7 | 90 | 24 | – |
| COC(=O)C[C@H](NC(=O)[C@H](C)NC(=O)[C@@H](NC(=O)OCc1ccccc1)C(C)C)C(=O)CF (Cbz-Val-Ala-Asp(OMe)-CH2F) | – | – | – | inhibition (Caspase-3 (Mus musculus)): Active; inhibition (Caspase-7 (Mus musculus)): Active |
| COc1ccc2c(c1)[C@]1(C=C[C@H](N=C=S)C[C@H]1C(=O)OC(C)(C)C)C(=O)N2 | 40.5 | 75 | 10 | – |
| O=C(OCc1ccccc1)[C@@H]1C[C@@H](N=C=S)C=C[C@@]12C(=O)N(C(=O)OCc1ccccc1)c1ccccc12 | 85.5 | 104 | 42 | – |
| CC(C)(C)OC(=O)[C@@H]1C[C@@H](NC(=S)NN)C=C[C@@]12C(=O)N(C(=O)OCc1ccccc1)c1ccccc12 | > 100 | 107 | 84 | – |
| CC(C)(C)OC(=O)[C@@H]1C[C@@H](N=C=S)C=C[C@@]12C(=O)N(C(=O)OCc1ccccc1)c1c(F)cccc12 | 79.1 | 85 | 13 | – |
| S=C=NCc1ccccc1 | – | – | – | inhibition [3]: Dose-Dependent Effect; inhibition (active/not active) (Caspase-1 (Homo sapiens) [4]): Active |
| CC(C)(C)OC(=O)[C@@H]1C[C@@H](N=C=S)C=C[C@@]12C(=O)Nc1ccc(NC(=O)CCCC[C@@H]3SC[C@@H]4NC(=O)N[C@@H]43)cc12 | – | – | – | Activity (J774.A1 [6]): Active; inhibition (J774.A1 [7]): Active; Activity (J774.A1 [8]): Active; Activity (J774.A1 [9]): inactive; Activity [10]: Active; inhibition (Caspase-1 (Homo sapiens) [5]): Dose-Dependent Effect; Activity [11]: Active; Activity (J774.A1 [12]): Active |
